Patent publication US4678750A, “Method and compositions for use in the treatment of fireblight” (Microlife Technics, Inc., priority 1984, dated 1987)

System: depolymerase from phage-infected E. amylovora NCPPB595
Assay: Effect of chemical agents on depolymerase activity (galactose release from polysaccharide)
Type: biochemical, phage ERA103 / Erwinia amylovora NCPPB595
Conditions: for Effect of agent on depolymerase activity (in words): Table 2; for Activity % Control: control assay without inhibitors
Protocol: Depolymerase activity was assayed by following the release of galactose from the polysaccharide substrate according to the method of Fairbridge (Fairbridge,R. A., et al. Biochem. J. 49:423-427 (1951)). The reaction mixture consisted of the following: 100 microliters of the appropriate enzyme solution and 100 microliters of polysaccharide (10 mg/ml) suspended in 0.01M citrate buffer, pH 6.0 containing 0.01M 2-mercaptoethanol. One unit of enzyme was defined as the amount of enzyme required to produce 1 micromole of galactose per minute under standard assay conditions.
Substrate Preparation. Polysaccharide was prepared from uninfected cultures of Erwinia amylovora NCPPB595 cultivated on sheets of cellophane overlaying Tryptic Soy agar, as decribed by Liu (Liu, P.V., et al., J. Infect. Dis. 108:218-228 (1961)). The polysaccharide was extracted from the slime layer according to the method of Liu.
The effect of various chemical agents on depolymerase activity can be seen in Table 2.

[1] = agent 10.0 millimoles per liter

## OCCS [2-Mercaptoethanol]
  Effect of agent on depolymerase activity (in words): enhanced depolymerase activity substantially
Agent 0.1 millimoles per liter
  Activity % Control: 122 % Control
Agent 1.0 millimoles per liter
  Activity % Control: 155 % Control
[1]
  Activity % Control: 168 % Control

## Oc1cccc2cccnc12 [8-hydroxyquinoline]
  Effect of agent on depolymerase activity (in words): insensitive

## OC(CS)C(O)CS (centres unmarked) [Dithiothreitol, 1,4 dimercapto-2,3-butanediol]
  Effect of agent on depolymerase activity (in words): enhanced depolymerase activity substantially
Agent 0.1 millimoles per liter
  Activity % Control: 122 % Control
Agent 1.0 millimoles per liter
  Activity % Control: 138 % Control
[1]
  Activity % Control: 258 % Control

## O=C(O)CI [Iodoacetate]
  Effect of agent on depolymerase activity (in words): no efect on enzymatic activity
Agent 0.1 millimoles per liter
  Activity % Control: 100 % Control
Agent 1.0 millimoles per liter
  Activity % Control: 100 % Control
[1]
  Activity % Control: 100 % Control

## CCN1C(=O)C=CC1=O [N--ethylmaleimide, N-ethylmaleimide]
  Effect of agent on depolymerase activity (in words): no efect on enzymatic activity
Agent 0.1 millimoles per liter
  Activity % Control: 100 % Control
Agent 1.0 millimoles per liter
  Activity % Control: 100 % Control
[1]
  Activity % Control: 100 % Control

## [N-]=[N+]=[N-] [Sodium azide]
  Effect of agent on depolymerase activity (in words): insensitive
Agent 0.1 millimoles per liter
  Activity % Control: 100 % Control
Agent 1.0 millimoles per liter
  Activity % Control: 100 % Control
[1]
  Activity % Control: 100 % Control

## O=C(O)c1cc[c]([Hg][Cl])cc1 [p-Chloromercuribenzoate]
  Effect of agent on depolymerase activity (in words): inhibited the enzyme at all concentrations tested
Agent 0.1 millimoles per liter
  Activity % Control: 0 % Control
Agent 1.0 millimoles per liter
  Activity % Control: 0 % Control
[1]
  Activity % Control: 0 % Control

## ethylene-di-(o-hydroxyphenylacetate)
  Effect of agent on depolymerase activity (in words): insensitive
Agent 0.1 millimoles per liter
  Activity % Control: 100 % Control
Agent 1.0 millimoles per liter
  Activity % Control: 100 % Control
[1]
  Activity % Control: 100 % Control
